Results on nine molecules are retold here after US9328397B2, “Removal of arsenic using a dissimilatory arsenic reductase” (UNIWERSYTET WARSZAWSKI, priority 2013, dated 2016).

Assay [1] deals with Shewanella sp. O23S strain. Description: Dissimilatory reduction of 2.5 mM sodium arsenate in the presence of heavy metals. To be noted: minimal R1-R2 medium; for Reduction of arsenic in the presence of the metal (maximum concentration of metals allowing for dissimilatory reduction of 2.5 mM sodium arsenate): 5 mM sodium lactate. The class given is cell-based.
Assay [2] deals with Shewanella sp. O23S strain. Description: Minimal inhibitory concentration (MIC) of heavy metals in LB medium. To be noted: 24 hours at 22° C., OD600. The class given is cell-based.

Bounds are passed on as bounds.

As for `O.O.O.O.O.O.O.O.O=S(=O)([O-])[O-].[Cd+2]` [Cd(II), CdSO4•8H2O], the “Reduction of arsenic in the presence of the metal (maximum concentration of metals allowing for dissimilatory reduction of 2.5 mM sodium arsenate)” value (shortened to “Reduction of arsenic”) in assay [1] worked out at 1 mM. The MIC value in assay [2] is reported as 1 mM.
In the case of `O.O.O.O.O.O.O.O=S(=O)([O-])[O-].[Co+2]` [Co(II), CoSO4•7H2O], in assay [1], the “Reduction of arsenic” value is 2 mM. In assay [2], this molecule yielded an MIC value of 2 mM.
As for `O.O.O.O.O.O.O.O.O.O.O.O.O.O.O.O.O.O.O=S(=O)([O-])[O-].O=S(=O)([O-])[O-].O=S(=O)([O-])[O-].[Cr+3].[Cr+3]` [Cr(III), Cr2(SO4)3•18H2O], the “Reduction of arsenic” value in assay [1] was found to be 3 mM. Moreover, the MIC value in assay [2] is given as 5 mM.
With `O.O.O.O.O.O=S(=O)([O-])[O-].[Cu+2]` [Cu(II), CuSO4•5H2O], the “Reduction of arsenic” value in assay [1] worked out at 2 mM. The MIC value in assay [2] stood at 3 mM.
As for `[Fe+3]` [Fe(III)], in assay [1], the “capability of dissimilatory reduction in the presence of the metal” value was “not demonstrated”. The same molecule showed an MIC value in assay [2] of 5 mM.
Regarding `O.O=S(=O)([O-])[O-].[Mn+2]` [Mn(II), MnSO4•H2O], in assay [1], the “Reduction of arsenic” value is above 5 mM. The molecule further had an MIC value in assay [2] above 20 mM.
For `O.O.O.O.O.O.O.O.O.O.O=[Se](=O)([O-])[O-].[Na+].[Na+]` [Se(VI), Na2SeO4•10H2O], in assay [1], the “Reduction of arsenic” value was found to be 5 mM. The molecule further displayed an MIC value in assay [2] above 20 mM.
The corresponding values for `[Na+].[O]=[V](=[O])[O-]` [V(V), NaVO3] are above 5 mM and above 20 mM.
With `O.O.O.O.O.O.O.O=S(=O)([O-])[O-].[Zn+2]` [Zn(II), ZnSO4•7H20], the “Reduction of arsenic” value in assay [1] is listed as 2 mM. Besides, in assay [2], the MIC value stood at 3 mM.
